The target in this assay is T1, STING (Homo sapiens, UniProt Q86WV6, G230A/H232R/R293Q/R71H).
T1 construct: host or cells: THP1-Dual KO-IFNAR2 cells
Kind of assay: STING reporter assay: luciferase reporter activity in THP1-Dual KO-IFNAR2 cells stimulated with 2'3'cGAMP. The assay is classed as cell-based. Conditions: 2′3′cGAMP 15 μM final, 24h, read-out: hSTING: EC50. In outline: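 THP1-Dual KO-IFNAR2 cells (2×10E6 cells/mL) incubated with compounds at 0.0017-100 μM final plus Lipofectamine-transfected 2′3′cGAMP (15 μM final), 24 h at 37 °C, 5% CO2. Luciferase in supernatant read by QUANTI-Luc luminescence; EC50 derived.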
(In general: A reporter such as luciferase makes a cellular process visible.)

T1 sequence (Q86WV6 whole entry R71H/G230A/H232R/R293Q): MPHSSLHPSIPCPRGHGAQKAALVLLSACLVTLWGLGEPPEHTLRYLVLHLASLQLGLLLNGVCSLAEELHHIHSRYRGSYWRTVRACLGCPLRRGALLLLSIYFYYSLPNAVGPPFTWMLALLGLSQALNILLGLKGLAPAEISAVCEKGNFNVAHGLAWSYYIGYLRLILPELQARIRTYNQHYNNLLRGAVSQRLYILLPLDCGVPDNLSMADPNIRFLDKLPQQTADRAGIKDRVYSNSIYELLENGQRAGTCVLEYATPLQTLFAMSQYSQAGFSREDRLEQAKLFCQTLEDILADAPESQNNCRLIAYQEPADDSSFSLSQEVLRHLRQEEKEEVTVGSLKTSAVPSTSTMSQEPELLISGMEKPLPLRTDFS

As a reminder, the EC50 is the concentration needed to bring the measured effect to its halfway point. As to `N#Cc1cc(NC(=O)C(=O)Nc2c[nH]c3cc(F)c(F)cc23)ccc1N1CCCC1` [Compound 286, N′-[3-cyano-4-(pyrrolidin-1-yl)phenyl]-N-(5,6-difluoro-1H-indol-3-yl)ethanediamide], the EC50 lay within 200 to 1000 nM.
On to `COc1ncc(NC(=O)C(=O)Nc2c[nH]c3cc(F)c(F)cc23)cc1C(F)(F)F` [Compound 287, N-(5,6-difluoro-1H-indol-3-yl)-N′-[6-methoxy-5-(trifluoromethyl)pyridin-3-yl]ethanediamide], for which the EC50 was in the range of 1000 to 5000 nM.
Under `CC(NC(=O)C(=O)Nc1c[nH]c2cc(F)c(F)cc12)c1cccc(OC(F)(F)F)c1` (centres unmarked) [Compound 288, N-(5,6-difluoro-1H-indol-3-yl)-N′-{1-[3-(trifluoromethoxy)phenyl]ethyl} ethanediamide] stands 200 to 1000 nM; under `Cc1cc(NC(=O)C(=O)Nc2c[nH]c3cc(F)c(F)cc23)ccc1OC(F)(F)F` [Compound 289, N-(5,6-difluoro-1H-indol-3-yl)-N′-[3-methyl-4-(trifluoromethoxy)phenyl] ethanediamide], 40 to 200 nM.
Under `O=C(NCCOc1cccnc1)C(=O)Nc1c[nH]c2cc(F)c(F)cc12` [Compound 290, N-(5,6-difluoro-1H-indol-3-yl)-N′-[2-(pyridin-3-yloxy)ethyl] ethanediamide] stands 5000 to 100000 nM; under `C[C@@H](NC(=O)C(=O)Nc1c[nH]c2cc(F)c(F)cc12)c1cccc(C(F)(F)F)c1` [Compound 291, N-(5,6-difluoro-1H-indol-3-yl)-N′-[(1R)-1-[3-(trifluoromethyl)phenyl]ethyl] ethanediamide], 200 to 1000 nM.
For `O=C(Nc1ccc2c(c1)OC(F)(F)O2)C(=O)Nc1c[nH]c2cc(F)c(F)cc12` [Compound 292, N-(5,6-difluoro-1H-indol-3-yl)-N′-(2,2-difluoro-2H-1,3-benzodioxol-5-yl)ethanediamide], the EC50 was 200 to 1000 nM.
For `COc1cc(NC(=O)C(=O)Nc2c[nH]c3cc(F)c(F)cc23)ccc1N1CCCC1` [Compound 293, N-(5,6-difluoro-1H-indol-3-yl)-N′-[3-methoxy-4-(pyrrolidin-1-yl)phenyl] ethanediamide] the value was 200 to 1000 nM.
In the case of `O=C(NCCN1CCCc2ccccc21)C(=O)Nc1c[nH]c2cc(F)c(F)cc12` [Compound 294, N-(5,6-difluoro-1H-indol-3-yl)-N′-[2-(1,2,3,4-tetrahydroquinolin-1-yl)ethyl]ethanediamide], the EC50 was 200 to 1000 nM.
On to `C#Cc1cc(NC(=O)C(=O)Nc2c[nH]c3cc(F)c(F)cc23)ccc1Cl` [Compound 295, N′-(4-chloro-3-ethynylphenyl)-N-(5,6-difluoro-1H-indol-3-yl)ethanediamide], for which the EC50 is 200 to 1000 nM.
Under `O=C(Nc1cnc2sccc2c1)C(=O)Nc1c[nH]c2cc(F)c(F)cc12` [Compound 296, N′-(5,6-difluoro-1H-indol-3-yl)-N-{thieno[2,3-b]pyridin-5-yl}ethanediamide] stands 200 to 1000 nM; under `CC(C)(C)OC(=O)N1CCC2(CCC(NC(=O)C(=O)Nc3c[nH]c4cc(F)c(F)cc34)CC2)CC1` [Compound 297, tert-butyl 9-{[(5,6-difluoro-1H-indol-3-yl)carbamoyl] formamido}-3-azaspiro[5.5]undecane-3-carboxylate], 200 to 1000 nM; under `C[C@H](NC(=O)C(=O)Nc1c[nH]c2cc(F)c(F)cc12)c1ccc(C(F)(F)F)cn1` [Compound 298, N-(5,6-difluoro-1H-indol-3-yl)-N′-[(1S)-1-[5-(trifluoromethyl)pyridin-2-yl]ethyl]ethanediamide], 200 to 1000 nM.
For `COc1ccc(CCNC(=O)C(=O)Nc2c[nH]c3cc(F)c(F)cc23)cn1` [Compound 299, N-(5,6-difluoro-1H-indol-3-yl)-N′-[2-(6-methoxypyridin-3-yl)ethyl]ethanediamide] the value was 1000 to 5000 nM.
Under `O=C(Nc1c[nH]c2cc(F)c(F)cc12)C(=O)NC1CCC(O)(C(F)(F)F)CC1` (centres unmarked) [Compound 300, N-(5,6-difluoro-1H-indol-3-yl)-N′-[4-hydroxy-4-(trifluoromethyl)cyclohexyl] ethanediamide] stands 5000 to 100000 nM; under `O=C(Nc1c[nH]c2cc(F)c(F)cc12)C(=O)NC1COc2ccccc2C1` (centres unmarked) [Compound 301, N-(5,6-difluoro-1H-indol-3-yl)-N′-(3,4-dihydro-2H-1-benzopyran-3-yl)ethanediamide], 200 to 1000 nM; under `O=C(Nc1ccc(C(F)(F)F)cc1)C(=O)Nc1c[nH]c2ccc(Br)cc12` [Compound 302], 40 to 200 nM.
Turning to `CC(NC(=O)C(=O)Nc1c[nH]c2cc(F)c(F)cc12)c1cc(C(F)(F)F)c(Cl)cn1` (centres unmarked) [Compound 303], the EC50 was in the range of 200 to 1000 nM.
In the case of `O=C(NCc1ccc2ccccc2n1)C(=O)Nc1c[nH]c2cc(F)c(F)cc12` [Compound 304, N-(5,6-difluoro-1H-indol-3-yl)-N′-[(quinolin-2-yl)methyl] ethanediamide], the EC50 was 200 to 1000 nM.
For `O=C(NCCOC1CCCC1)C(=O)Nc1c[nH]c2cc(F)c(F)cc12` [Compound 305, N'-[2-(cyclopentyloxy)ethyl]-N-(5,6-difluoro-1H-indol-3-yl)ethanediamide] the value was 200 to 1000 nM.
For `CN(C(=O)CNC(=O)C(=O)Nc1c[nH]c2cc(F)c(F)cc12)c1ccccc1` [Compound 306, N-(5,6-difluoro-1H-indol-3-yl)-N′-{[methyl(phenyl)carbamoyl]methyl} ethanediamide] the value was 1000 to 5000 nM.
For `CN(CCCNC(=O)C(=O)Nc1c[nH]c2cc(F)c(F)cc12)c1ccccc1` [Compound 307, N-(5,6-difluoro-1H-indol-3-yl)-N′-{3-[methyl(phenyl)amino]propyl}ethanediamide] the value was 200 to 1000 nM; for `CN(C)CC(NC(=O)C(=O)Nc1c[nH]c2cc(F)c(F)cc12)c1ccccc1` (centres unmarked) [Compound 308, N-(5,6-difluoro-1H-indol-3-yl)-N′-[2-(dimethylamino)-1-phenylethyl] ethanediamide], 5000 to 100000 nM.
As for `O=C(NCC(=O)N1CCc2ccccc21)C(=O)Nc1c[nH]c2cc(F)c(F)cc12` [Compound 309, N-(5,6-difluoro-1H-indol-3-yl)-N′-[2-(2,3-dihydro-1H-indol-1-yl)-2-oxoethyl] ethanediamide], the EC50 lay within 200 to 1000 nM.
Under `COCC(NC(=O)C(=O)Nc1c[nH]c2cc(F)c(F)cc12)c1ccccc1` (centres unmarked) [Compound 310, N-(5,6-difluoro-1H-indol-3-yl)-N′-(2-methoxy-1-phenylethyl) ethanediamide] stands 1000 to 5000 nM; under `CCC(NC(=O)C(=O)Nc1c[nH]c2cc(F)c(F)cc12)c1cccc(C(F)(F)F)c1` (centres unmarked) [Compound 311, N-(5,6-difluoro-1H-indol-3-yl)-N′-{1-[3-(trifluoromethyl)phenyl]propyl} ethanediamide], 200 to 1000 nM.
Under `O=C(Nc1c[nH]c2cc(F)c(F)cc12)C(=O)NC(c1ccccc1)C(F)(F)F` (centres unmarked) [Compound 312, N1-(5,6-difluoro-1H-indol-3-yl)-N2-(2,2,2-trifluoro-1-phenylethyl)oxalamide] stands 200 to 1000 nM; under `O=C(Nc1c[nH]c2cc(F)c(F)cc12)C(=O)NC1CCc2ccccc2C1` (centres unmarked) [Compound 313, N-(5,6-difluoro-1H-indol-3-yl)-N′-(1,2,3,4-tetrahydronaphthalen-2-yl)ethanediamide], 200 to 1000 nM; under `O=C(Nc1c[nH]c2cc(F)c(F)cc12)C(=O)NC1CCC2(CCCC2)CC1` [Compound 314], 200 to 1000 nM.

Values taken from patent publication US20230021448A1, “COMPOUNDS AND COMPOSITIONS FOR TREATING CONDITIONS ASSOCIATED WITH STING ACTIVITY” (IFM Due, Inc., priority 2019, published 2023).
